Source: article PMC3242765, “Inhibitors of Alphavirus Entry and Replication Identified with a Stable Chikungunya Replicon Cell Line and Virus-Based Assays” (PLoS ONE, 2011)

Tested on: SFV-Rluc
Settings: for SFV replication % left: primary screening of chemical libraries, compounds tested at 50 µM; for % left (remaining SFV replication): Supplementary Table 2, moderately active compounds (25 - 60% remaining), primary screen at 50 µM

Structure (SMILES) | SFV replication % left [%] | other results
Nc1ccc(Cl)cc1C(=O)c1ccccc1F [PC-083] | 167.4 | –
O=C(O)/C=C\C(=O)O.O=C(O)/C=C\C(=O)O.OCCN1CCN(CCCN2c3ccccc3Sc3ccc(C(F)(F)F)cc32)CC1 [PC-084] | 98.9 | –
Nc1nc2ncc(CNc3ccc(C(=O)N[C@@H](CCC(=O)O)C(=O)O)cc3)nc2c(=O)[nH]1 [PC-085] | 100.0 | –
COc1ccccc1OCC(O)CO (centres unmarked) [PC-086] | 124.5 | –
CN1C(=O)NC(=O)C(C)(C2=CCCCC2)C1=O (centres unmarked) [PC-087] | 121.3 | –
Oc1ccc(C(O)CNCCCCCCNCC(O)c2ccc(O)c(O)c2)cc1O (centres unmarked) [PC-088] | 124.9 | –
NCCCS(=O)(=O)O [PC-090] | 118.7 | –
NS(=O)(=O)c1cc2c(cc1Cl)NCNS2(=O)=O [PC-091] | 121.2 | –
CC(=O)OCC(=O)[C@@]1(O)CC[C@H]2[C@@H]3CCC4=CC(=O)CC[C@]4(C)[C@H]3[C@@H](O)C[C@@]21C [PC-092] | 116.8 | –
CCN(CCO)CCCC(C)Nc1ccnc2cc(Cl)ccc12.O=S(=O)(O)O (centres unmarked) [PC-093] | 128.9 | –
CNC(C)C(O)c1ccc(O)cc1 (centres unmarked) [PC-094] | 94.4 | –
CC(CN1c2ccccc2Sc2ccccc21)[N+](C)(C)CCO.[Cl-] (centres unmarked) [PC-096] | 102.2 | –
Cl.Cl.OCCOCCN1CCN(C(c2ccccc2)c2ccc(Cl)cc2)CC1 (centres unmarked) [PC-097] | 98.3 | –
CC(C)Cc1ccc(CC(=O)O)cc1 [PC-098] | 102.2 | –
CC(C)Cc1ccc(C(C)C(=O)O)cc1 (centres unmarked) [PC-099] | 92.8 | –
O[C@H]1[C@H](O)[C@@H](O)[C@H](O)[C@@H](O)[C@H]1O [PC-100] | 106.0 | –
CCC(NC(C)C)C(O)c1ccc(O)c(O)c1 (centres unmarked) [PC-101] | 90.7 | –
CC(C)NCC(O)c1ccc(O)c(O)c1.CC(C)NCC(O)c1ccc(O)c(O)c1.O.O.O=S(=O)(O)O (centres unmarked) [PC-102] | 110.9 | –
CC(C)NCC(O)c1ccc(O)c(O)c1.Cl (centres unmarked) [PC-103] | 112.5 | –
CC(CCc1ccccc1)NCC(O)c1ccc(O)c(C(N)=O)c1.Cl (centres unmarked) [PC-105] | 72.5 | –
O=C1Nc2ccc(Cl)cc2C(c2ccccc2Cl)=NC1O (centres unmarked) [PC-106] | 98.2 | –
CN1CCN=C(c2ccccc2)c2cc(Cl)ccc21 [PC-107] | 87.5 | –

Structure (SMILES) | SFV replication % left [%] | other results
Cc1cccc(Nc2ccccc2C(=O)O)c1C [PC-108] | 103.5 | –
CC1=CC(=O)c2ccccc2C1=O [PC-109] | 28.3 | –
Cc1ccccc1OCC(O)CO (centres unmarked) [PC-110] | 79.2 | –
CNC(C)(C)Cc1ccccc1.CNC(C)(C)Cc1ccccc1.O=S(=O)(O)O [PC-111] | 81.8 | –
Cc1cccc(C)c1NC(=O)C1CCCCN1C.Cl (centres unmarked) [PC-112] | 74.9 | –
CN1CCCCC1CCN1c2ccccc2Sc2ccc([S+](C)[O-])cc21.O=S(=O)(O)c1ccccc1 (centres unmarked) [PC-113] | 93.8 | –
C[C@H](N)[C@H](O)c1cccc(O)c1.O=C(O)C(O)C(O)C(=O)O [PC-114] | 96.5 | –
CN1CCC(CN2c3ccccc3Sc3ccccc32)C1 (centres unmarked) [PC-115] | 22.5 | –
COc1ccc(OC)c(C(O)C(C)N)c1.Cl (centres unmarked) [PC-116] | 98.4 | –
C[N+]1(C)[C@@H]2CC[C@H]1C[C@@H](OC(=O)C(CO)c1ccccc1)C2.[Br-] (some centres unmarked) [PC-117] | 70.9 | –
C[C@](N)(Cc1ccc(O)c(O)c1)C(=O)O [PC-118] | 99.1 | –
COC(=O)c1ccc(O)cc1 [PC-119] | 69.3 | –
CC(=O)Oc1c(C)cc(OCC(O)CNC(C)C)c(C)c1C (centres unmarked) [PC-120] | 46.2 | % left (remaining SFV replication): 46.7%
Cc1ncc([N+](=O)[O-])n1CCO [PC-121] | 69.2 | –
COCCc1ccc(OCC(O)CNC(C)C)cc1.COCCc1ccc(OCC(O)CNC(C)C)cc1.O=C(O)C(O)C(O)C(=O)O (centres unmarked) [PC-122] | 65.7 | –
CC(C)(C)NCC(O)COc1cccc2c1CC(O)C(O)C2 (centres unmarked) [PC-123] | 60.5 | –
N/C(CC(O)COc1cccc2ccccc12)=N/O (centres unmarked) [PC-124] | 20.8 | –
CCn1cc(C(=O)O)c(=O)c2ccc(C)nc21 [PC-125] | 80.4 | –
COc1ccc2cc([C@H](C)C(=O)O)ccc2c1 [PC-126] | 92.7 | –
COc1ccc(C(=O)Cc2c(CCN(C)C)cc3c(c2OC)OCO3)c(C(=O)O)c1OC [PC-127] | 118.3 | –
NC(=O)c1cccnc1 [PC-129] | 116.9 | –
O=C1CN=C(c2ccccc2)c2cc([N+](=O)[O-])ccc2N1 [PC-130] | 46.0 | % left (remaining SFV replication): 46.6%

Structure (SMILES) | SFV replication % left [%] | other results
O=C1CN(/N=C/c2ccc([N+](=O)[O-])o2)C(=O)N1 [PC-131] | 58.9 | –
NC(=O)N/N=C/c1ccc([N+](=O)[O-])o1 [PC-132] | 83.7 | –
CC(N)C(O)c1ccc(O)c(O)c1.Cl (centres unmarked) [PC-133] | 118.0 | –
C#C[C@]1(O)CC[C@H]2[C@@H]3CCC4=CC(=O)CC[C@@H]4[C@H]3CC[C@@]21C [PC-134] | 107.8 | –
NCC(O)c1cccc(O)c1 (centres unmarked) [PC-135] | 126.3 | –
CNCCC=C1c2ccccc2CCc2ccccc21.Cl [PC-136] | 5.3 | –
COc1ccc2c(c1OC)C(=O)O[C@@H]2[C@H]1c2c(cc3c(c2OC)OCO3)CCN1C [PC-137] | 103.5 | –
Cl.NCC(O)c1ccc(O)cc1 (centres unmarked) [PC-138] | 102.1 | –
OCCN1CCN(CCCN2c3ccccc3C=Cc3ccccc32)CC1 [PC-139] | 27.5 | –
C[C@@H]1O[C@@H](O[C@H]2C[C@@H](O)[C@]3(CO)[C@H]4[C@H](O)C[C@]5(C)[C@@H](C6=CC(=O)OC6)CC[C@]5(O)[C@@H]4CC[C@]3(O)C2)[C@H](O)[C@H](O)[C@H]1O [PC-140] | 90.9 | –
O=C1Nc2ccc(Cl)cc2C(c2ccccc2)=NC1O (centres unmarked) [PC-141] | 79.1 | –
C=CCOc1ccccc1OCC(O)CNC(C)C.Cl (centres unmarked) [PC-142] | 92.4 | –
CCCCC1C(=O)N(c2ccccc2)N(c2ccc(O)cc2)C1=O (centres unmarked) [PC-143] | 84.8 | –
CCOc1ccc(NC(C)=O)cc1 [PC-150] | – | SFV replication % left (surviving fraction, remaining percentage of SFV replication): 71.8%
CCOc1ccc(NC(C)=O)cc1 [PC-151] | – | SFV replication % left (surviving fraction, remaining percentage of SFV replication): 80.6%
CCC1(c2ccccc2)C(=O)NC(=O)NC1=O [PC-153] | – | SFV replication % left (surviving fraction, remaining percentage of SFV replication): 58.6%
CCN(CC)CCNC(=O)c1ccc(N)cc1.Cl [PC-166] | – | SFV replication % left (surviving fraction, remaining percentage of SFV replication): 89.0%
CCN(CC)CCOC(=O)c1ccc(N)cc1.Cl [PC-167] | – | SFV replication % left (surviving fraction, remaining percentage of SFV replication): 105.4%
CC(CN1c2ccccc2Sc2ccccc21)N(C)C.Cl (centres unmarked) [PC-169] | – | SFV replication % left (surviving fraction, remaining percentage of SFV replication): 48.8%
CC(C)[N+](C)(CCOC(=O)C1c2ccccc2Oc2ccccc21)C(C)C.[Br-] [PC-171] | – | SFV replication % left (surviving fraction, remaining percentage of SFV replication): 77.0%
CC(C)NCC(O)COc1cccc2ccccc12.Cl (centres unmarked) [PC-174] | – | SFV replication % left (surviving fraction, remaining percentage of SFV replication): 74.0%
CC(Cc1ccc2c(c1)OCO2)NCC(O)c1ccc(O)c(O)c1.Cl (centres unmarked) [PC-177] | – | SFV replication % left (surviving fraction, remaining percentage of SFV replication): 128.4%
